Assay results: patent US8999664B2, “Method of improving salmon meat color” (JX Nippon Oil & Energy Corporation, priority 2006, dated 2015)

Key:
Type in all cases: in vivo
[1] = tested on: silver salmons (Oncorhynchus kisutch); assay: Cultivation of silver salmon with carotenoid feed: fish weight and flesh color by spectrometer
Excerpt: The flesh color of a landed salmon can be quantified with the L*a*b* color system by measuring the color using a spectrometer. L* represents the luminance, a* represents the chroma red, and b* represents chroma yellow. A higher value of a*/b* represents a color more reddish than orangish, and a lower value of a*/b* represents a color more orangish than reddish. […] 300 silver salmons (Oncorhynchus kisutch) each weighing about 200 g were cultivated as a test division of being fed with the above-described fermented product, and another 300 silver salmons each weighing about 200 g were cultivated as a test division of being fed with the above-described synthetic product. The salmons were fed in satiation in a marine fish pen for 6 months. After the 6 months of cultivating, 10 fish of each test division were weighed. […] The fish were immediately killed by cutting medulla and frozen for preservation. After being thawed, the fish flesh was milled by a coffee mill, and a part thereof was put into a polyethylene bag to measure the color tone thereof by a spectrometer CM-508i (Minolta). […] From a part of the milled fish flesh, the carotenoid colorant was extracted, and analyzed in terms of the content of each carotenoid compound by HPLC.

[2] = tested on: Atlantic salmons (Salmo salar); assay: Cultivation of Atlantic salmon with carotenoid feed: fish weight and flesh color by spectrometer
Excerpt: The flesh color of a landed salmon can be quantified with the L*a*b* color system by measuring the color using a spectrometer. L* represents the luminance, a* represents the chroma red, and b* represents chroma yellow. A higher value of a*/b* represents a color more reddish than orangish, and a lower value of a*/b* represents a color more orangish than reddish. […] 400 Atlantic salmons (Salmo salar) each weighing about 300 g were cultivated as a test division of being fed with the above-described fermented product, and another 400 Atlantic salmons each weighing about 300 g were cultivated as a test division of being fed with the above-described synthetic product. The salmons were fed in satiation in a marine fish pen for 12 months. After the 12 months of cultivating, 20 fish of each test division were landed and weighed. […] The fish were immediately killed by cutting medulla, and the fish flesh was measured in terms of the color tone by a spectrometer. […] After the measurement, the fish flesh was frozen for preservation for 1 month. After being thawed, the fish flesh of the 20 fish of each test division was analyzed in terms of the content of each carotenoid compound.

[3] = tested on: rainbow trouts (Oncorhynchus mykiss); assay: Cultivation of rainbow trout with carotenoid feed: fish weight and flesh color by spectrometer
Excerpt: The flesh color of a landed salmon can be quantified with the L*a*b* color system by measuring the color using a spectrometer. L* represents the luminance, a* represents the chroma red, and b* represents chroma yellow. A higher value of a*/b* represents a color more reddish than orangish, and a lower value of a*/b* represents a color more orangish than reddish. […] 50 rainbow trouts (Oncorhynchus mykiss) each weighing about 100 g were cultivated in a water tank as a test division of being fed with the above-described fermented product, and another 50 rainbow trouts each weighing about 100 g were cultivated in a water tank as a test division of being fed with the above-described synthetic product. The trouts of each test division were fed in satiation in fresh water for 3 months. After the 3 months of cultivating, 12 fish of each test division were weighed. […] The fish were immediately killed by cutting medulla. […] After the measurement, the fish flesh was frozen for preservation. After being thawed, the fish flesh of the 12 fish of each test division was analyzed in terms of the content of each carotenoid compound.

[4] = tested on: king salmons (Oncorhynchus tshawytscha); assay: Cultivation of king salmon with carotenoid feed: fish weight and flesh color by spectrometer
Excerpt: The flesh color of a landed salmon can be quantified with the L*a*b* color system by measuring the color using a spectrometer. L* represents the luminance, a* represents the chroma red, and b* represents chroma yellow. A higher value of a*/b* represents a color more reddish than orangish, and a lower value of a*/b* represents a color more orangish than reddish. […] 100 king salmons (Oncorhynchus tshawytscha) each weighing about 200 g were cultivated as a test division of being fed with the above-described fermented product, and another 100 king salmons each weighing about 200 g were cultivated as a test division of being fed with the above-described synthetic product. The salmons were fed in satiation in a marine fish pen for 3 months. After the 3 months of cultivating, 15 fish of each test division were sampled and weighed. […] The fish were immediately killed by cutting medulla. […] After the measurement, the fish flesh was frozen for preservation for 1 month. After being thawed, the fish flesh of the fish of each test division was analyzed in terms of the content of each carotenoid compound.

[5] = milled thawed fish flesh, spectrometer CM-508i, 6 months, average of 10 fish
[6] = flesh color tone by spectrometer, 12 months, average of 20 fish
[7] = flesh color by spectrometer, 3 months, average of 12 fish
[8] = flesh color by spectrometer, 3 months, average of 15 fish

With `CC1=C(/C=C/C(C)=C/C=C/C(C)=C/C=C/C=C(C)/C=C/C=C(C)/C=C/C2=C(C)C(=O)[C@@H](O)CC2(C)C)C(C)(C)C[C@H](O)C1=O` [Synthetic product, astaxanthin] the “Fish flesh color exhibited” value ([1]; 6 months of cultivating) was “unnatural red color”, the “L* value (luminance)” value [1, 5] was 55.6 and the “a* value (chroma red)” value [1, 5] was 26.0. For the same molecule, the “b* value (chroma yellow)” value [1, 5] was 26.2, the “a*/b*” value ([1]; milled thawed fish flesh, spectrometer, 6 months, average of 10 fish) was 0.99 and the “Fish flesh color exhibited” value ([2]; 12 months of cultivating) was “reddish orange color with a high level of chroma red”. For the same molecule, the “L* value (luminance)” value [2, 6] was 50.0, the “a* value (chroma red)” value [2, 6] was 26.2 and the “a*/b*” value [2, 6] was 0.94. The “b* value (chroma yellow)” value [2, 6] was 27.9, the “Fish flesh color exhibited” value ([3]; 3 months of cultivating) was “reddish orange color close to a red color” and the “L* value (luminance)” value [3, 7] was 41.8. For the same molecule, the “a* value (chroma red)” value [3, 7] was 9.1, the “a*/b*” value [3, 7] was 0.66 and the “b* value (chroma yellow)” value [3, 7] was 13.8. The “Fish flesh color exhibited” value ([4]; 3 months of cultivating) was “reddish orange color close to a red color”, the “L* value (luminance)” value [4, 8] was 50.8 and the “a* value (chroma red)” value [4, 8] was 23.7. For the same molecule, the “a*/b*” value [4, 8] was 0.93 and the “b* value (chroma yellow)” value [4, 8] was 25.5.
